Here are results for 3 compounds from the NIST ThermoML archive (doi:10.1021/je020113t).

± gives the expanded uncertainty stated by the source.

For the data set the following is noted: visual observation.

For `c1c[nH]cn1` [1H-imidazole], the Normal melting temperature (Crystal) is 89.10 ± 0.5 °C.

With `Cc1ncc[nH]1` [2-methylimidazole], the Normal melting temperature (Crystal 1) came to 146 ± 0.5 °C.

Consider `Cc1nccn1C` [1,2-dimethyl-1H-imidazole], for which the Normal melting temperature (Crystal) worked out at 38.4 ± 0.5 °C.
